Experimental findings from ChEMBL document CHEMBL1136795, “A computational model of binding thermodynamics: the design of cyclin-dependent kinase 2 inhibitors” (J Med Chem, 2003) are described below.

For the assay, the target named is Cyclin-dependent kinase 2 (Homo sapiens, UniProt P24941). Put plainly: Inhibition of Cyclin-dependent kinase 2 (CDK2).

Molecule `CN1CCC(c2c(O)cc(O)c3c(=O)cc(Sc4ccccc4Cl)oc23)C(O)C1` (stereo unspecified) gave an IC50 of 2100 nM.

The term IC50 denotes the point on the concentration scale where inhibition reaches its midpoint. A higher IC50 goes with weaker potency in that assay.
